Test results as given in US9511080B2, “Okadaella gastrococcus and cancer” (Okada Medical Services Pty Ltd, priority 2009, dated 2016).

Key:
[1] = system: Okadaella gastrococcus (Og) isolates; assay: In vitro antibiotic sensitivity of Og (E-tests and diffusion disc tests); type: cell-based; conditions: for Og can be treated using antibiotic (in vitro assays): 25 Og isolates from gastric mucosal biopsy specimens
Description: Twenty-five Og isolates were obtained from gastric mucosal biopsy specimens. E-tests and diffusion disc tests were performed under microaerophilic condition (Oxygen 5%, CO2 10%, and Nitrogen 85%) utilizing. 5% horse blood agar, except metronidazole which was tested under anaerobic condition. Antibiotic sensitivity was read 72 hours after incubation. Randomly selected isolates were also examined under TEM to confirm the ultrastructure of Og. Results: Og was sensitive to various antibiotics, in particular to the penicillins, the cephalosporins, the quinolones, and chloramphenicol.

[2] = system: intestinal metaplasia of the gastric mucosa; conditions: co-administered with Hp eradication therapy (Walker, 2003); cited from earlier work

Row | Structure (SMILES) | Og can be treated using antibiotic (in vitro assays) [1] | Effect on intestinal metaplasia of the gastric mucosa [2] | Antibiotic sensitivity of Og ([1]; E-tests and diffusion disc tests, microaerophilic, 5% horse blood agar, read 72 hours after incubation)
1 | CC1(C)S[C@@H]2[C@H](NC(=O)[C@H](N)c3ccccc3)C(=O)N2[C@H]1C(=O)O [ampicillin] | can be treated |  | 
2 | O=C1O[C@H]([C@@H](O)CO)C(O)=C1O [ascorbic acid] |  | significantly resolved the intestinal metaplasia | 
3 | CO/N=C(\C(=O)N[C@@H]1C(=O)N2C(C(=O)O)=C(COC(C)=O)CS[C@H]12)c1csc(N)n1 [cefotaxime] | can be treated |  | 
4 | O=C(N[C@H](CO)[C@H](O)c1ccc([N+](=O)[O-])cc1)C(Cl)Cl [chloramphenicol] | can be treated |  | sensitive
5 | O=C(O)c1cn(C2CC2)c2cc(N3CCNCC3)c(F)cc2c1=O [ciprofloxacin] | can be treated |  | 
6 | COc1c(N2CCNC(C)C2)c(F)cc2c(=O)c(C(=O)O)cn(C3CC3)c12 (stereo not shown) [gatifloxacin] | can be treated |  | 
